Reference: the NIST ThermoML archive (doi:10.1016/j.tca.2015.03.003)
± gives the expanded uncertainty stated by the source.

Conditions: Crystal; DTA

| Normal melting temperature [°C] | Structure (SMILES) |
| --- | --- |
| 771.1 ± 4 | [Cl-].[K+] [potassium chloride] |
| 801.1 ± 4 | [Cl-].[Na+] [sodium chloride] |
